Series [1] is described as follows: Photoisomerization: photostationary states by 1H NMR, switching cycles by UV-vis. Type of series: physicochemical. The method, then:
Tweezer constructs were synthesized as an E/Z mixture, with a strong preference for the thermodynamically stable E isomer. For photoisomerization, UV-vis spectra of TWAAP and TWAB (50 μM in water) were recorded in their initial state. The constructs were then isomerized to the Z isomer with UV light (λ = 365 nm, 1 min) and back to the E isomer with green light (λ = 520 nm, 5 min). Two light sources were used: UV LED HighPower-LED with 3 W of λ = 365 nm (LED Engin Inc., San Jose, California, US) and a LSC-G HighPower-LED with 3 W of λ = 520 nm (Cree Inc., Durham, North Carolina, US). UV-vis spectroscopy was routinely employed to analyze the tweezer constructs, serving as the method of choice to monitor configurational integrity after multiple switching cycles. More than 10 switching cycles were performed without any loss of configurational integrity. The UV-vis spectra were recorded with a JASCO V-650 double-beam spectrophotometer (JASCO).
The photophysical properties of AAP tweezers TWAAP0-4 as well as those of AZO tweezers TWAB1-2 were consistent with previous reports on these photoswitches. […] The two isomers are easily distinguished by the significant difference in their absorption bands (Fig. 2 and Fig. S4a, b). […] Irradiation with green light further increases the concentration of the E isomer, as confirmed by both UV/vis and NMR spectra. The switching process can be repeated for over 10 cycles without loss of configurational integrity or photodegradation of the tweezer. […] (Fig. 2 and Table S1).
Supplementary Table S1. Photostationary states (PSSE→Z and PSSZ→E) and half-life of Z isomers of
respectively. n.d., not determinable.
TW construct PSSE→Z [%] PSSZ→E [%] […]

The target in series [2] is T1, wildtype Taspase 1 (Homo sapiens, UniProt Q9H6P5).
T1 sequence (Q9H6P5 1-233 limits assumed): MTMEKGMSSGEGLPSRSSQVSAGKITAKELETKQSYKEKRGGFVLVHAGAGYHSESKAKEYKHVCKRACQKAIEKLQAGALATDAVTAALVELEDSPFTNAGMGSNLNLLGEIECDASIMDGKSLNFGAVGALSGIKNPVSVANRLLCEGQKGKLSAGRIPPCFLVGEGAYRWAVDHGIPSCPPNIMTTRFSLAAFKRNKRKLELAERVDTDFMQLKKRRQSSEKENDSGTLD
T1 sequence (Q9H6P5 234-420 limits assumed): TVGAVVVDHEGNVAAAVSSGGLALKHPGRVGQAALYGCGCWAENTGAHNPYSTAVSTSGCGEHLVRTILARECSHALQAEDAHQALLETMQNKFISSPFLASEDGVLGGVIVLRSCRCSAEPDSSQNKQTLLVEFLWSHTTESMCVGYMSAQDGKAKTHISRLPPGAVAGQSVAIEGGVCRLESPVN
Briefly: Recombinant cleavage assay with GST-MLL2700–2850-GFP-His substrate. Format: biochemical. Conditions: for IC50: ligand conc. 10 - 100 µM, 200 nM Taspase 1, 5 µM substrate, n = 3, read-out: IC50 TW (recombinant cleavage, full-length protein). On the procedure: The recombinant cleavage assay employing the recombinant fusion protein GST-MLL2700–2850-GFP-His, which contains the CS2 cleavage site of the Mixed-lineage leukemia (MLL) protein as a substrate for Taspase 1, was performed as described.[9,10]
Given that Taspase 1's active site is positioned directly at the base of the loop harboring the bipartite NLS (Fig. 1A, and Fig. S1), it is reasonable to expect that our photoswitchable tweezer constructs, which recognize this signal, might also influence proteolytic activity - similar to the inhibition observed with our “first-generation” multivalent ligands.[10] In principle the presence of a sterically demanding artificial ligand may hinder or even completely block substrate binding and subsequent cleavage. To assess this, we employed a well-established in vitro cleavage assay using a recombinant, truncated fusion protein harboring the second cleavage site (CS2) of the Mixed Lineage Leukemia 1 (MLL1) protein, a bona fide Taspase 1 substrate.[39] In this assay, the cleaved and uncleaved substrate fractions of the GST-MLL2700–2850-GFP-His substrate were separated on a Coomassie-stained gel, and signal intensities of the different cleavage bands were quantified (Fig. 7, Fig. S8, and Fig. S9). The addition of recombinant, proteolytically active Taspase 1 (200 nM) led to efficient substrate cleavage, which was inhibited by all photoswitchable tweezer constructs in a concentration-dependent manner. IC50 values for the full series of switchable tweezer constructs ranged from 20 to 50 μM, with measurements taken separately for both E and Z isomers Fig. (S9).
Fig. 7 Switchable tweezer constructs interfere with Taspase 1 proteolytic activity. Cleavage assay utilizing the cleavage site CS2 from the natural substrate MLL (GST-MLL2700–2850-GFP-His) and active wildtype Taspase 1. Inhibition of proteolysis was evaluated by the relative amount of uncleaved substrate. Briefly, 5 μM recombinant substrate were incubated with 200 nM wildtype Taspase 1-His and increasing concentrations of TWAAP0-4 (10 - 100 μM), pre-irradiated with either UV light (365 nm, violet), or green light (520 nm, green), or solvent only. Proteolytic activity in solvent-treated samples was set to 100%, and data from TWAAP-treated samples were normalized accordingly. IC50 values were determined by densitometric quantification of the cleavage bands from the gels shown in Fig. S9, followed by nonlinear curve fitting. These values were also used to generate the summary bar plots shown on the right. Data are shown as the mean ± SD from three independent experiments. Composed with https://BioRender.com.
Figure S8. Photoswitchable TWAAP constructs interfere with Taspase 1’s proteolytic activity.
Cleavage assay utilizing the cleavage site CS2 from the natural substrate MLL (GST -MLL2700-2850-GFP-His, 70 kDa) and active wildtype Taspase 1. Inhibition of proteolysis was evaluated by the relative amount of uncleaved in relation to cleaved substrate (50 kDa and 20 kDa, respectively). Briefly, 5 µM recombinant substrate were incubated with 200 nM wildtype Taspase 1-His and increasing concentrations (10 - 100 µM) of indicated TWAAP irradiated with UV (365 nm, left gel panels) or green light (520 nm, right gel panels). Solvent-treated samples (referred to as untreated, un.) served as reference, and as additional controls, Taspase 1 (-T) was omitted or only Taspase 1 (TASP1) was applied. Representative images of three independent experiments are shown. Composed with […]
Figure S9. Photoswitchable TWAAB constructs interfere with Taspase 1’s proteolytic activity. Cleavage assay utilizing the cleavage site CS2 from the natural substrate MLL (GST -MLL2700-2850-GFP-His, 70 kDa) and active wildtype Taspase 1. Inhibition of proteolysis was evaluated by the relative amount of uncleaved in relation to cleaved substrate (50 kDa and 20 kDa, respectively).
Briefly, 5 µM recombinant substrate were incubated with 200 nM wildtype Taspase 1-His and […]

Where two headings read alike, the source gives them in different places.

The IC50 is the point on the concentration scale where inhibition reaches its midpoint. For the compound `O=P(O)(O)Oc1c2c(c(OP(=O)(O)OCCn3cc(COCc4ccc(N=Nc5ccc(COCc6cn(CCOP(=O)(O)Oc7c8c(c(OP(=O)(O)O)c9c7C7CC9c9cc%10c(cc97)C7CC%10c9ccccc97)C7CC8c8cc9c(cc87)C7CC9c8ccccc87)nn6)cc5)cc4)nn3)c3c1C1CC3c3cc4c(cc31)C1CC4c3ccccc31)C1CC2c2cc3c(cc21)C1CC3c2ccccc21` [TWAB2], the “PSS E→Z, photostationary state” value in series [1] (UV 365 nm) worked out at 59%. Besides, the “PSS Z→E, photostationary state” value in series [1] (green light 520 nm) turned out to be 56%. The results for the IC50 in series [2] (E isomer) and in series [2] (Z isomer) were 22.3 µM and 24.9 µM, respectively. Moreover, in series [2] (particularly at 50 μM), the “Difference in inhibitory activity between E and Z isomers (times greater potency of E isomer)” value is given as “no difference”.

Values taken from publication PMC12419465, “Photoresponsive molecular tweezers modulate Taspase 1 activity” (RSC Chemical Biology, 2025).
